Results from US5871779A, “Treatment of arthropathies with vanadate compounds or analogues thereof” (Mount Sinai Hospital Corporation, priority 1996, dated 1999).
“And” between values parts separate entries of the source, which are not always exact repeats. Equal entries are not always repeated.

How the values were obtained:
MDAY-2D tumor [1] = test: BEOV and N-acetylcysteine on tumor growth (Example 21); format: in vivo, mice; design: unit not given here; conditions: for Tumour weight: individual mice
Experimental: The effectiveness of BEOV in reducing tumor growth was investigated and the effective concentration required for inhibiting tumor growth was determined as follows.
(§1) Forty mice were subcutaneously injected with 100 μl of MDAY-2D tumor cell suspension (8×10^6 /100 μl)on day 1. On day 6, the mice were randomly divided into […] groups and injected following drugs twice a day. The […] groups were as follows: Group 1: 100 μl of PBS; Group 2: 100 μl of 2% NAC(ip) and 0.1 mg BEOV in 100 μl BS; Group 3: 100 μl of 2% NAC(ip) and 0.25 mg BEOV in 100 μl PBS; and Group 4: 100 μl of 2% NAC(ip) and 0.5 mg BEOV in 100 μl PBS. On injection day 9, the mice were sacrificed and the tumors dissected.

Lewis lung = test: MTT cytotoxicity assay, Lewis lung; format: cell-based, murine; conditions: 72 hours
Experimental: (§2) The relative cytotoxicity of various compounds on tumor cell lines was investigated as follows. Cytotoxicity was measured by the MTT microculture tetrazolium colorimetric assay for all cell lines. The relative cytotoxicity of Na3 VO4 and VOSO4 was investigated using the following tumor cell lines: P388(WT) murine leukemia, P388 (ADR) murine leukemia, Lewis murine lung, MCF7 (WT) human breast, […] human lung, K562 human erythroleukemia, A431 human epidermal, LS180 human colon and SK-OV-3 human ovarian. The relative cytotoxicity of doxorubicin, Na3 VO4 and VOSO4 was investigated using the following tumor cell lines: P388(WT) murine leukemia, P388 (ADR) murine leukemia, MCF7(WT) human breast and MCF7 (ADR) human breast. The relative cytotoxicity of BMOV, BEOV and naglivan was investigated using the following tumor cell lines: P388(WT) murine leukemia, P388 (ADR) murine leukemia, Lewis murine lung, H460 human lung, K562 human erythroleukemia, and SK-OV-3 human ovarian.
(§3) The cells were plated (number of cells/well was different from cell line to cell depending on the dividing rate) in a 96-well microculture plate 24 hours prior to the delivery of the vanadium compounds. Serial concentrations of solutions of the test compounds (0.05-100 μM) were delivered to the corresponding wells. A blank column (without cells) and a control column (with cells without vanadium) were left. The cells were incubated for 72 hours continuously. An MTT solution was added to each well after this incubation period and the cells were incubated for 4 more hours for the completion of the dyeing process. The medium was removed find DMSO was added to each well. The absorbance of each well was read with a Titertek Multiskan (310C) spectrophotometer at 570 nm. The percentage of the absorbance of each vanadium concentration relative to the control calculated and the value of the 50% growth inhibition concentration (IC50) was obtained from the % control versus concentration plot. Each assay was repeated three times and the reported IC50 values were the mean of these three runs.

P388 (WT) = test: MTT cytotoxicity assay, P388 (WT); format: cell-based, murine; conditions: P388 (WT), 72 hours; read-out: IC50 Value
Experimental: as §2, §3

P388 (ADR) = test: MTT cytotoxicity assay, P388 (ADR); format: cell-based, murine; conditions: P388 (ADR), 72 hours; read-out: IC50 Value
Experimental: as §2, §3

SK-OV-3 = test: MTT cytotoxicity assay, SK-OV-3; format: cell-based, human; conditions: SK-OV-3, 72 hours
Experimental: as §2, §3

H460 = test: MTT cytotoxicity assay, H460; format: cell-based, human; conditions: H460, 72 hours
Experimental: as §2, §3

[2] = tested on: proliferating chondrocytes; test: viability / proliferation of proliferating chondrocytes (low cell density); format: cell-based; conditions: summary statement
Experimental: In order to compare the effect of orthovanadate on non-proliferating and proliferating chondrocytes, chondrocytes were plated at both high cell density (2×10^6 to 4×10^6 cells/per well on a six well plate) (nonproliferating) and at a lower cell density (5×10^5 to 1×10^6 cells/per well on a six well plate) (proliferating) and then maintained for 48 hours. The cells were then incubated in media (HAMS F12) containing 0-50 μM Orthovanadate for an additional 48 hours. The cells were harvested and the number of viable cells determined.

[3] = body weight of mice, BEOV and N-acetylcysteine (Example 21); format: in vivo; design: Body weight / Body weight, Average: unit not given here; conditions: for Body weight: individual mice; for death of animal: mouse 5
Experimental: as §1

K562 = test: MTT cytotoxicity assay, K562; format: cell-based, human; conditions: K562, 72 hours
Experimental: as §2
as §3, with “Serial concentrations of solutions of the test compounds (0.05-100 μM) were delivered to the corresponding wells.” left out

collagenase = collagenase production by chondrocytes (ELISA); format: cell-based, bovine; conditions: summary statement
Experimental: The effect of orthovanadate and N-acetylcysteine on fos, jun and collagenase expression were examined. Bovine articular chondrocytes were isolated and plated as previously described (Kandel R. A. et al. Biochim. Biophys. Acta. 1053, 130-134, 1990). In order to determine the effect of orthovanadate on IL 1 and PMA (phorbol ester) induced responses, chondrocytes were incubated with orthovanadate (100 μM) for 2 hours before stimulation with IL 1 (10 ng/ml) or PMA ([…]). Collagenase production was determined by incubating chondrocytes for 24 hours with IL 1 or PMA and the cell conditioned medium was assayed for collagenase activity using an ELISA procedure as described previously (Kandel et al. supra). PLA2 activity was measured by incorporating ^3 H-arachidonic acid (^3 H-AA) into the cells and then incubating the cells with medium containing 1 mg/ml BSA, either alone or in the presence of IL 1 or PMA, for 10 min. as previously described (Conquer, J. A. […], Biochim. Biophys. Acta. 1134, 1-6). The amount of ^3 H-AA liberated into the supernatant was determined. To measure PGE2 production, chondrocytes were incubated for 6 hours in Ham's F12 medium, either alone or with IL 1 or PMA. The supernatant was analyzed by RIA using an antibody specific for PGE2 (Dr. S. A. Jones, Mount Sinai Hospital, Toronto, Canada). In order to examine the expression of c-fos and c-jun, chondrocytes were incubated for 1 hour in the presence of IL-1, PMA or AA (3 μM). Chondrocytes were washed in PBS and the total RNA extracted as previously described (Cruz. et al, 1991, Biochem. J. 277, 327-330). RNA samples were run on formaldehyde agarose gels and transferred to nylon membrane for northern analysis using cDNA probes for c-fos and c-jun.

carcinogenesis = conditions: G. Shklar et al.; cited from earlier work
MDAY-2D tumor [4] = test: ammonium bisvanadate and N-acetylcysteine on tumor growth (Example 22); format: in vivo, mice; design: Tumour weight: unit not given here; conditions: for Tumour weight: individual mice
Experimental: Forty mice were subcutaneously injected with MDAY-2D tumor cells (8×10^5 /100 μl) on day 1. On day 6, the mice were randomly divided into six groups and injected with the following drugs twice a day: Group 1: 100 μl of PBS; Group 2: 100 μl of 2% NAC(ip) and 0.1 mg ammonium bisvanadate in 100 μl PBS; Group 3: 100 μl of 2% NAC(ip) and 0.25 mg ammonium bisvanadate in 100 μl PBS; Group 4;100 μl of 2% NAC(ip) and 0.5 mg ammonium bisvanadate in 100 μl PBS; Group 5: 100 μl of 2% NAC (ip) and 0.75 mg ammonium bisvanadate in 100 μl PBS and; Group 6: 100 μl of 2% NAC (ip) and 1.0 mg ammonium bisvanadate.
On injection day 11 the mice were sacrificed and the tumors dissected. […] The effective concentrations of the vanadate complexes are from 0.25mg/100 μl and 0.5 mg/100 μl.

MDAY-D2 cells = test: viability of MDAY-D2 cells; format: cell-based, mouse; conditions: 0-50 μM, 48 hours, three forms compared
Experimental: Fos and jun activity are also required for cellular proliferation in many tumor cell lines. Accordingly, the effect of orthovanadate on adherent cells and cell suspensions were examined. MDAY-D2 (a mouse lymphoid cell line grown in suspension) and HTB14 cells (an adherent human primary astrocytoma cell line) were incubated in media containing 0-50 μM orthovanadate for 48 hours. The cells were harvested and the number of viable cells determined.
Three different forms of vanadyl compounds were examined for their effect on viability of cancer cell lines. MDAY-D2 cells were incubated in media containing 0-50 μM orthovanadate, vanadyl sulphate, or vanadyl hydroperoxide for 48 hours. The cells were harvested and the number of viable cells determined. […] Although there were slight differences in sensitivity, the overall cell death was similar.

MDAY-D2 tumor = MDAY-D2 tumor growth in vivo, orthovanadate, vanadyl sulphate, vanadyl hydroperoxide (Example 6B); design: species or system mice
Description: In order to examine the ability of vanadyl compounds to reduce tumor formation, growth and metastases, a specific animal model which allows investigation of all of these processes in the same animal was chosen. This model involves the injection of a metastatic haematopoietic cell line, MDAY-D2, into mice subcutaneously. These cells form a tumor at the site of injection and its size can be easily determined. In addition, these cells metastasize to the liver and metastases can be detected histologically after day 17 to 19. This model provides a very sensitive and reproducible approach to investigate the effect of vanadyl compounds on tumor growth and metastases.
In a separate experiment using the same animal model, the effect of orthovanadate, vanadyl sulphate and vanadyl hydroperoxide administration on tumor growth in vivo was examined. On Day 1, 20 mice were injected with 2×10^5 MDAY-D2 cell subcutaneously. The mice were divided into four groups of five mice. At day 5, the animals were injected subcutaneously with 50 μl of water alone or containing 10 mg/ml of orthovanadate, 10 mg/ml of vanadyl sulphate, or 10 mg/ml of vanadyl hydroperoxide. This treatment was continued daily for 16 days. At day 21, the mice were sacrificed and the tumors dissected and weighed.

CCc1occc(=O)c1[O][V](=[O])[O]c1c(CC)occc1=O [BEOV, bis(ethylmaltolato) oxovanadium]
Tumour weight, Average (MDAY-2D tumor [1]; 0.1 mg BEOV + 2% NAC): 0.82
Tumour weight (MDAY-2D tumor [1]; 0.1 mg BEOV twice a day + 2% NAC ip): 0.9 and 0.6 and 0.8 and 1.0
Tumour weight, Average (MDAY-2D tumor [1]; 0.25 mg BEOV + 2% NAC): 0.08
Tumour weight (MDAY-2D tumor [1]; 0.25 mg BEOV twice a day + 2% NAC ip): 0.28 and 0.0 and 0.12
Tumour weight, Average (MDAY-2D tumor [1]; 0.5 mg BEOV + 2% NAC): 0.03
Tumour weight (MDAY-2D tumor [1]; 0.5 mg BEOV twice a day + 2% NAC ip): 0.1 and 0.0
IC50 (Lewis lung): 97.4 µM
IC50 (P388 (WT)): 82.6 µM
IC50 (P388 (ADR)): 39.8 µM
IC50 (SK-OV-3): 2.6 µM
IC50 (H460): 4.4 µM
proliferation of cells, such as chondrocytes [2]: inhibit
Body weight, Average ([3]; 0.1 mg BEOV + 2% NAC): 16.5
Body weight ([3]; 0.1 mg BEOV + 2% NAC): 17.8 and 15.5 and 15.9 and 16.8
death of animal ([3]; 0.1 mg BEOV + 2% NAC): died
Body weight, Average ([3]; 0.25 mg BEOV + 2% NAC): 16.02
Body weight ([3]; 0.25 mg BEOV + 2% NAC): 15.9 and 15.7 and 16.9 and 15.4 and 16.2
Body weight, Average ([3]; 0.5 mg BEOV + 2% NAC): 15.25
Body weight ([3]; 0.5 mg BEOV + 2% NAC): 13.7 and 13.9 and 16 and 17.4
death of animal ([3]; 0.5 mg BEOV + 2% NAC): died
IC50 (K562): 374 µM
production of metalloproteases, such as collagenase (collagenase): inhibit

N[C@@H](CCC(=O)N[C@@H](CS)C(=O)NCC(=O)O)C(=O)O [glutathione]
anticancer activity (carcinogenesis): anticancer activity

CC1=C(/C=C/C(C)=C/C=C/C(C)=C/C=C/C=C(C)/C=C/C=C(C)/C=C/C2=C(C)CCCC2(C)C)C(C)(C)CCC1 [β-carotene]
anticancer activity (carcinogenesis): anticancer activity

ammonium bis vanadate [ABOV]
Tumour weight (MDAY-2D tumor [4]; 0.1 mg ABOV twice a day + 2% NAC ip): 0.62 and 0.19 and 0.74 and 0.53 and 0.32 and 0.50
Tumour weight (MDAY-2D tumor [4]; 0.25 mg ABOV twice a day + 2% NAC ip): 0.25 and 0.33 and 0.54 and 0.20 and 0.0 and 0.18
Tumour weight (MDAY-2D tumor [4]; 0.5 mg ABOV twice a day + 2% NAC ip): 0.21 and 0.50 and 0.07 and 0.34 and 0.0
death of animals (MDAY-2D tumor [4]; 0.75 mg ABOV twice a day + 2% NAC ip): died
death of animals (MDAY-2D tumor [4]; 1.0 mg ABOV twice a day + 2% NAC ip): died
inhibition of tumor growth (MDAY-2D tumor [4]; with NAC): inhibited the tumor growth
proliferation of cells, such as chondrocytes [2]: inhibit
production of metalloproteases, such as collagenase (collagenase): inhibit

n-tocopherol
anticancer activity (carcinogenesis): anticancer activity

vanadyl hydroperoxide
killing of MDAY-D2 cells (MDAY-D2 cells): equally effective
animal deaths (MDAY-D2 tumor; groups of five, 10 mg/ml, 50 μl daily s.c.): all five died
efficacy in reducing tumor growth (MDAY-D2 tumor; mouse, in vivo): too toxic to evaluate its efficacy

vitamin E
anticancer activity (carcinogenesis): anticancer activity
